Assay results taken from US12252488B2 (Nimbus Saturn, Inc., priority 2021, dated 2025).

Each molecule was assayed against T1, HPK1 (Homo sapiens, UniProt Q92918) (assay: HPK1 biochemical enzyme assay (microfluidic mobility shift assay)). Conditions: 1000 uM (1 mM) ATP; Caliper mobility shift; 1.5 nM HPK1; 30 min preincubation; read-out: HPK1 1000UMATP caliper IC50.
T1 construct: purchased Invitrogen
In short: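 IC50 values, grouped into activity categories, come from 10-point titrations (top final 3 μM) preincubated 30 min with 1.5 nM enzyme and substrate at pH 7.4. ATP (1 mM), substrate (1 μM) and MgCl2 (5 mM) then added; after 60 min at RT, product separated by microfluidic mobility shift.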

T1 sequence (Q92918 whole entry): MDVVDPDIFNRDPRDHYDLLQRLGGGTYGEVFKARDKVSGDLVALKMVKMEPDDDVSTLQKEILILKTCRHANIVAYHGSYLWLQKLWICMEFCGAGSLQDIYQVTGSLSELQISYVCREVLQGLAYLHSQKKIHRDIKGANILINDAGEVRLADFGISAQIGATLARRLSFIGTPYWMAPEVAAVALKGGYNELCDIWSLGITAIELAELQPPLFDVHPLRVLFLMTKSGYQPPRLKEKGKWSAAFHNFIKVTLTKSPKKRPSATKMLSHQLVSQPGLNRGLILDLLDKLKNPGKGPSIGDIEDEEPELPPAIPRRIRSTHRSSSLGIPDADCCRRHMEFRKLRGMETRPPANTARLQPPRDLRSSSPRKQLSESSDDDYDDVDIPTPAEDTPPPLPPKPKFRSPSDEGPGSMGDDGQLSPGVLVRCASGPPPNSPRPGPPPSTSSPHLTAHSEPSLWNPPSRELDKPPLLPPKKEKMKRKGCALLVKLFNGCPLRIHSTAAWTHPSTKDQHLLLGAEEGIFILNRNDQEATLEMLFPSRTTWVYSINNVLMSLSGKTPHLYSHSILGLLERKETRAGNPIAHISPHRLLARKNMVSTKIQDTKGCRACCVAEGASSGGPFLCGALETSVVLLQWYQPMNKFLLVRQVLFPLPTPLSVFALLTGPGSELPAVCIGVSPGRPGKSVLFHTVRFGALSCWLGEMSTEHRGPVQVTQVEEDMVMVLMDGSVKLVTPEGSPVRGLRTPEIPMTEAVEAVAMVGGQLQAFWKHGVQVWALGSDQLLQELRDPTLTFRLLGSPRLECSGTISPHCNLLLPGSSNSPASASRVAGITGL

O=c1[nH]ccc2nc(C3CCOCC3)cc(Nc3ccc(N4CCC(O)CC4)cn3)c12 [I-36, 4-[[5-(4-hydroxy-1-piperidyl)-2-pyridyl]amino]-2-tetrahydropyran-4-yl-6H-1,6-naphthyridin-5-one] and O=c1[nH]ccc2nc(C3CCCC3)cc(Nc3ccc(N4CCC(O)CC4)cn3)c12 [I-20, 2-cyclopentyl-4-[[5-(4-hydroxy-1-piperidyl)-2-pyridyl]amino]-6H-1,6-naphthyridin-5-one] cannot be ordered by IC50: no more than 0.1 µM for the first, 0.1 to 1 µM for the second.

Compared with CN(C(=O)c1ccc(-c2cc(Nc3ccc(N4CCC(O)CC4)cn3)c3c(=O)[nH]ccc3n2)c(F)c1)C1CCCCC1 [I-143, N-cyclohexyl-3-fluoro-4-[4-[[5-(4-hydroxy-1-piperidyl)-2-pyridyl]amino]-5-oxo-6H-1,6-naphthyridin-2-yl]-N-methyl-benzamide], CN(C(=O)C1CC1)c1ccc(-c2cc(Nc3ccc(N4CCC(O)CC4)cn3)c3c(=O)[nH]ccc3n2)c(F)c1 [I-108, N-[3-fluoro-4-[4-[[5-(4-hydroxy-1-piperidyl)-2-pyridyl]amino]-5-oxo-6H-1,6-naphthyridin-2-yl]phenyl]-N-methyl-cyclopropane-carboxamide] is lower in IC50: greater than 1 µM for the first, no more than 0.1 µM for the second.

CCNC(=O)c1ccc(Nc2cc(C(C)C)nc3cc[nH]c(=O)c23)cc1 [I-29, N-ethyl-4-[(2-isopropyl-5-oxo-6H-1,6-naphthyridin-4-yl)amino] benzamide] and CCNC(=O)c1ccc(Nc2nc(-c3c(F)cccc3F)cc3cc[nH]c(=O)c23)cc1 [I-7, 4-[[3-(2,6-difluorophenyl)-8-oxo-7H-2,7-naphthyridin-1-yl]amino]-N-ethyl-benzamide] fall in the same range of IC50: 0.1 to 1 µM for the first, 0.1 to 1 µM for the second.

Cc1nc2cc(-c3cc(Nc4ccc(N5CCC(O)CC5)cn4)c4c(=O)[nH]ccc4n3)c(F)cc2o1 [I-182, 2-(6-fluoro-2-methyl-1,3-benzoxazol-5-yl)-4-[[5-(4-hydroxy-1-piperidyl)-2-pyridyl]amino]-6H-1,6-naphthyridin-5-one] and Cc1ccc(F)c(-c2cc(Nc3ccc(N4CCC(O)CC4)cn3)c3c(=O)[nH]ccc3n2)c1 [I-4I] cannot be ordered by IC50: greater than 1 µM for the first, greater than 1 µM for the second.

First: O=c1[nH]ccc2nc(C3CC4CCC3C4)cc(Nc3ccc(N4CCC(O)CC4)cn3)c12 (centres unmarked) [I-40, 4-[[5-(4-hydroxy-1-piperidyl)-2-pyridyl]amino]-2-norbornan-2-yl-6H-1,6-naphthyridin-5-one]
Second: O=c1[nH]ccc2nc(N3CCC3)cc(Nc3ccc(N4CCC(O)CC4)cn3)c12 [I-144, 2-(azetidin-1-yl)-4-[[5-(4-hydroxy-1-piperidyl)-2-pyridyl]amino]-6H-1,6-naphthyridin-5-one]
The IC50 of the first is lower: 0.1 to 1 µM for the first, greater than 1 µM for the second.

O=C(C1CC1)N1CCC2(CCN(c3cc(Nc4ccc(N5CCC(O)CC5)cn4)c4c(=O)[nH]ccc4n3)CC2)C1 [I-233, 2-[2-(cyclopropanecarbonyl)-2,8-diazaspiro[4.5]decan-8-yl]-4-[[5-(4-hydroxy-1-piperidyl)-2-pyridyl]amino]-6H-1,6-naphthyridin-5-one] and O=c1[nH]ccc2nc(C3CC4CCC3C4)cc(Nc3ccc(N4CCC(O)CC4)cn3)c12 (centres unmarked) [I-35, 4-[[5-(4-hydroxy-1-piperidyl)-2-pyridyl]amino]-2-norbornan-2-yl-6H-1,6-naphthyridin-5-one] cannot be ordered by IC50: no more than 0.1 µM for the first, 0.1 to 1 µM for the second.

Compared with O=c1[nH]cc(Br)c2nc(-c3c(F)cccc3F)cc(Nc3ccc(N4CCC(O)CC4)cn3)c12 [I-5, 8-bromo-2-(2,6-difluorophenyl)-4-[[5-(4-hydroxy-1-piperidyl)-2-pyridyl]amino]-6H-1,6-naphthyridin-5-one], O=c1[nH]cc(-c2ccccc2)c2nc(-c3c(F)cccc3F)cc(Nc3ccc(N4CCC(O)CC4)cn3)c12 [I-56] is higher in IC50: 0.1 to 1 µM for the first, greater than 1 µM for the second.

CC(C)c1ccc(F)c(-c2cc(Nc3ccc(N4CCNCC4)cn3)c3c(=O)[nH]ccc3n2)c1 [I-110, 2-(2-fluoro-5-isopropyl-phenyl)-4-[(5-piperazin-1-yl-2-pyridyl)amino]-6H-1,6-naphthyridin-5-one] and N#Cc1ccc(F)c(-c2cc(Nc3ccc(N4CCC(O)CC4)cn3)c3c(=O)[nH]ccc3n2)c1 [I-45, 4-fluoro-3-[4-[[5-(4-hydroxy-1-piperidyl)-2-pyridyl]amino]-5-oxo-6H-1,6-naphthyridin-2-yl] benzonitrile] cannot be ordered by IC50: no more than 0.1 µM for the first, no more than 0.1 µM for the second.

CN(C)C(=O)c1ccc(F)c(-c2cc(Nc3ccc(N4CCC(O)CC4)cn3)c3c(=O)[nH]ccc3n2)c1 [I-79, 4-fluoro-3-[4-[[5-(4-hydroxy-1-piperidyl)-2-pyridyl]amino]-5-oxo-6H-1,6-naphthyridin-2-yl]-N,N-dimethyl-benzamide] and CNCc1ccc(F)c(-c2cc(Nc3ccc(N4CCC(O)CC4)cn3)c3c(=O)[nH]ccc3n2)c1 [I-217, 2-[2-fluoro-5-(methyl-amino-methyl)phenyl]-4-[[5-(4-hydroxy-1-piperidyl)-2-pyridyl]amino]-6H-1,6-naphthyridin-5-one] fall in the same range of IC50: 0.1 to 1 µM for the first, 0.1 to 1 µM for the second.

Going from CC(=O)N1CCCC1c1ccc(F)c(-c2cc(Nc3ccc(N4CCC(O)CC4)cn3)c3c(=O)[nH]ccc3n2)c1 (centres unmarked) [I-248, 2-[5-(1-acetyl-pyrrolidin-2-yl)-2-fluoro-phenyl]-4-[[5-(4-hydroxy-1-piperidyl)-2-pyridyl]amino]-6H-1,6-naphthyridin-5-one] to O=c1[nH]ccc2nc(-c3cc(CN4CC5(CCCO5)C4)ccc3F)cc(Nc3ccc(N4CCC(O)CC4)cn3)c12 [I-255, 2-[2-fluoro-5-(5-oxa-2-azaspiro [3.4]octan-2-ylmethyl)phenyl]-4-[[5-(4-hydroxy-1-piperidyl)-2-pyridyl]amino]-6H-1,6-naphthyridin-5-one], the IC50 rises from no more than 0.1 µM to greater than 1 µM.

Going from Cc1cc(-c2cc(Nc3ccc(N4CCC(O)CC4)cn3)c3c(=O)[nH]ccc3n2)c(F)cc1C(=O)N1CCCCC1 [I-114, 2-[2-fluoro-5-methyl-4-(piperidine-1-carbonyl)phenyl]-4-[[5-(4-hydroxy-1-piperidyl)-2-pyridyl]amino]-6H-1,6-naphthyridin-5-one] to COc1cc(-c2cc(Nc3ccc(N4CCC(O)CC4)cn3)c3c(=O)[nH]ccc3n2)ccc1C(=O)N1CCCCC1 [I-195, 4-[[5-(4-hydroxy-1-piperidyl)-2-pyridyl]amino]-2-[3-methoxy-4-(piperidine-1-carbonyl)phenyl]-6H-1,6-naphthyridin-5-one], the IC50 rises from no more than 0.1 µM to greater than 1 µM.

O=c1[nH]ccc2nc(-c3c(F)cccc3F)cc(Nc3ccc(S(=O)(=O)N4CCCCC4)cn3)c12 [I-24, 2-(2,6-difluoro-phenyl)-4-[[5-(1-piperidyl-sulfonyl)-2-pyridyl]amino]-6H-1,6-naphthyridin-5-one] and CC(C)c1cc(Nc2ccc(S(=O)(=O)N3CCCCC3)cn2)c2c(=O)[nH]ccc2n1 [I-31, 2-isopropyl-4-[[5-(1-piperidyl-sulfonyl)-2-pyridyl]amino]-6H-1,6-naphthyridin-5-one] fall in the same range of IC50: 0.1 to 1 µM for the first, 0.1 to 1 µM for the second.

O=C(Nc1ccc(-c2cc(Nc3ccc(N4CCC(O)CC4)cn3)c3c(=O)[nH]ccc3n2)c(F)c1)C1(C(F)F)CC1 [I-222] and COc1cccc(-c2cc(Nc3ccc(N4CCC(O)CC4)cn3)c3c(=O)[nH]ccc3n2)c1F [I-65, 2-(2-fluoro-3-methoxy-phenyl)-4-[[5-(4-hydroxy-1-piperidyl)-2-pyridyl]amino]-6H-1,6-naphthyridin-5-one] cannot be ordered by IC50: no more than 0.1 µM for the first, 0.1 to 1 µM for the second.

COc1cc(-c2cc(Nc3ccc(C4CCNCC4)cn3)c3c(=O)[nH]ccc3n2)c(F)cc1C(=O)N1CCCCC1 [I-245, 2-[2-fluoro-5-methoxy-4-(piperidine-1-carbonyl)phenyl]-4-[[5-(4-piperidyl)-2-pyridyl]amino]-6H-1,6-naphthyridin-5-one] and COc1cc(-c2cc(Nc3ccc(N4CCC(O)CC4)cn3)c3c(=O)[nH]ccc3n2)c(F)cc1C(=O)N1CC2C(C1)C2(F)F (centres unmarked) [I-251, 2-[4-(6,6-difluoro-3-azabicyclo [3.1.0]hexane-3-carbonyl)-2-fluoro-5-methoxy-phenyl]-4-[[5-(4-hydroxy-1-piperidyl)-2-pyridyl]amino]-6H-1,6-naphthyridin-5-one] cannot be ordered by IC50: no more than 0.1 µM for the first, no more than 0.1 µM for the second.

COc1cccc(F)c1-c1cc(Nc2ccc(N3CCC(O)CC3)cn2)c2c(=O)[nH]ccc2n1 [I-185, 2-(2-fluoro-6-methoxy-phenyl)-4-[[5-(4-hydroxy-1-piperidyl)-2-pyridyl]amino]-6H-1,6-naphthyridin-5-one] and Cc1ccncc1-c1cc(Nc2ccc(N3CCC(O)CC3)cn2)c2c(=O)[nH]ccc2n1 [I-281, 4-[[5-(4-hydroxy-1-piperidyl)-2-pyridyl]amino]-2-(4-methyl-3-pyridyl)-6H-1,6-naphthyridin-5-one] cannot be ordered by IC50: 0.1 to 1 µM for the first, no more than 0.1 µM for the second.

Compared with Cc1c[nH]c(=O)c2c(Nc3ccc(N4CCC(O)CC4)cn3)cc(C(C)C)nc12 [I-89, 4-[[5-(4-hydroxy-1-piperidyl)-2-pyridyl]amino]-2-isopropyl-8-methyl-6H-1,6-naphthyridin-5-one], CC(O)(c1cc(Nc2ccc(N3CCC(O)CC3)cn2)c2c(=O)[nH]ccc2n1)C(F)(F)F (centres unmarked) [I-77, 4-[[5-(4-hydroxy-1-piperidyl)-2-pyridyl]amino]-2-(2,2,2-trifluoro-1-hydroxy-1-methyl-ethyl)-6H-1,6-naphthyridin-5-one] is lower in IC50: greater than 1 µM for the first, 0.1 to 1 µM for the second.

First: O=c1[nH]ccc2nc(-c3cnc4ccccn34)cc(Nc3ccc(N4CCC(O)CC4)cn3)c12 [I-284, 4-[[5-(4-hydroxy-1-piperidy)-2-pyridyl]amino]-2-imidazo[1,2-a]pyridin-3-yl-6H-1,6-naphthyridin-5-one]
Second: CN(C)C1CCc2c1ccc(-c1cc(Nc3ccc(N4CCC(O)CC4)cn3)c3c(=O)[nH]ccc3n1)c2F (centres unmarked) [I-237, 2-[1-(dimethyl-amino)-4-fluoro-indan-5-yl]-4-[[5-(4-hydroxy-1-piperidyl)-2-pyridyl]amino]-6H-1,6-naphthyridin-5-one]
The IC50 of the first is higher: greater than 1 µM for the first, 0.1 to 1 µM for the second.

For CN1CCN(c2ccc(Nc3cc(-c4ccc(C(=O)N5CC6CCC5CC6)cc4F)nc4cc[nH]c(=O)c34)nc2)CC1 [I-278, 2-[4-(3-azabicyclo [2.2.2]octane-3-carbonyl)-2-fluoro-phenyl]-4-[[5-(4-methyl-piperazin-1-yl)-2-pyridyl]amino]-6H-1,6-naphthyridin 5-one], the IC50 was 0.1 to 1 µM.
